Experimental data taken from patent US20240059688A1, “CONOLIDINE ANALOGUES AS SELECTIVE ACKR3 MODULATORS FOR THE TREATMENT OF CANCER” (Luxembourg Institute of Health (LIH), priority 2020, published 2024).

Experiments:
Assay type in all cases: cell-based
MOR = MOR (Homo sapiens, UniProt P35372); assay: MOR calcium mobilization agonist/antagonist screen (CHO-RD-HGA16 cells); design: host or cells: CHO-RD-HGA16; details: single concentration; for Emax: CHO-RD-HGA16, agonist screen, control agonist DAMGO; for MOR Calcium % DAMGO Inhibition: antagonist screen, vs EC60 of DAMGO
Experimental: (§1) Compounds were evaluated for kappa (KOR), mu (MOR), and delta (DOR) opioid receptor agonist and antagonist activity in three individual cell lines overexpressing Gαq16 (CHO-RD-HGA16, Molecular Devices) and the human kappa, mu, and delta opioid receptors, respectively. The day before the assay, cells were plated into 96-well black-walled assay plates at 30,000 cells/well in Ham's F12 supplemented with 10% fetal bovine serum, and 100 units of penicillin and streptomycin. The cells were incubated overnight at 37° C., 5% CO2. Prior to the assay, Calcium 5 dye (Molecular Devices) was reconstituted according to the manufacturer's instructions. The reconstituted dye was diluted 1:40 in pre-warmed (37° C.) assay buffer (1×HBSS, 20 mM HEPES, 2.5 mM probenecid, pH 7.4 at 37° C.). Growth medium was removed and the cells were gently washed with 100 μL of pre-warmed (37° C.) assay buffer. The cells were incubated for 45 minutes at 37° C., 5% CO2 in 200 μL of the diluted Calcium 5 dye. For the agonist screen, a single concentration of each test compound and receptor-specific controls (U69,593, DAMGO, and DPDPE for KOR, MOR, and DOR, respectively) were prepared at 10× the desired final concentration in 1% DMSO/assay buffer, aliquoted into a 96-well polystyrene plate, and warmed to 37° C. After the dye-loading incubation period, pretreatment solution was added to each well (25 μL of 9% DMSO/assay buffer) and, after 15 min, the plate was read with a FlexStation II (Molecular Devices). Calcium-mediated changes in fluorescence were monitored every 1.52 seconds over a 60 second time period, with the FlexStation II adding 50 μL of test compounds at the 19 second time point (excitation at 485 nm, detection at 525 nm). Peak kinetic reduction (SoftMax, Molecular Devices) relative fluorescence units (RFU) were used to calculate % control agonist Emax with the equation % Emax=(test compound RFU/control agonist RFU)×100. For the antagonist screens, the same procedure was followed except that the pretreatment solution consisted of the test compounds (prepared at […] the desired final concentration in 9% DMSO/assay buffer) and the FlexStation added the EC60 concentration (prepared at 10× the desired final concentration in 1% DMSO/assay buffer) of each respective control agonist. Peak RFU were used to calculate % control EC60 inhibition with the equation % inhibition=((EC60 RFU−test compound RFU)/EC60 RFU)×100. When IC50 determinations were made, the same antagonist screen procedure was followed except that cells were pretreated with 8-pt concentration-response curves of the test compounds. Peak RFU were plotted against the log of compound concentration using non-linear regression analysis to generate IC50 values (GraphPad Prism). Each test sample was analyzed in duplicate in two independent experiments.

human CXCR4 = molecular target: T1, human CXCR4 (Homo sapiens, UniProt P61073); assay: CXCR4 β-arrestin recruitment assay (PathHunter); details: human CXCR4-C2Cl2 cells, relative to CXCL-12
T1 construct: host or cells: C2C12
Summary of the method: (§2)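 Agonist mode in PathHunter CHO cells expressing human ACKR3-β-arrestin-2, compounds added in DPBS/1% DMSO for 1.5 hr at 37° C, then detection 1 hr at room temperature, luminescence read. CXCR4 run in C2C12 cells with a 3 hr Cell Plating Reagent 4 preincubation. EC50 and % Emax from three-parameter fits, CXCL-12 as reference agonist; ≥2 independent experiments in duplicate.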

KOR = KOR (Homo sapiens, UniProt P41145); assay: KOR calcium mobilization agonist/antagonist screen (CHO-RD-HGA16 cells); design: host or cells: CHO-RD-HGA16; details: single concentration; for Emax: CHO-RD-HGA16, agonist screen, control agonist U69,593; for KOR Calcium % U69, 593 Inhibition: antagonist screen, vs EC60 of U69,593
Experimental: as §1

DOR = DOR (Homo sapiens, UniProt P41143); assay: DOR calcium mobilization agonist/antagonist screen (CHO-RD-HGA16 cells); design: host or cells: CHO-RD-HGA16; details: single concentration; for Emax: CHO-RD-HGA16, agonist screen, control agonist DPDPE; for DOR Calcium % DPDPE Inhibition: antagonist screen, vs EC60 of DPDPE
Experimental: as §1

CaV 3.2 = molecular target: T2, CaV 3.2 (Homo sapiens, UniProt O95180); assay: CaV 3.2 calcium assay in stable human CaV3.2-HEK293 cells; details: control agonist calcium chloride
T2 construct: expressed in transfected cells
Experimental: as §1
Compounds were evaluated for activity at CaV 3.2 using stable human CaV3.2-HEK293 cells and the control agonist calcium chloride. The day before the assay, cells were plated into 96-well black-walled assay plates coated with poly-D-lysine in DMEM-F12 supplemented with 10% fetal bovine serum, 100 units penicillin/streptomycin, and 500 μM sodium pyruvate, and incubated at 37° C., 5% CO2 overnight. Prior to the assay, Calcium 5 dye (Molecular Devices) was reconstituted according to the manufacturer instructions. The reconstituted dye was diluted 1:10 in pre-warmed (37° C.) assay buffer (1×HBSS, […], […], pH 7.4 at 37° C.). The cells were incubated for 45 minutes at 37° C., 5% CO2 in 200 μL of the diluted Calcium 5 dye. Compounds were prepared as described above and the plate was read with a FLIPR Tetra (Molecular Devices). Calcium-mediated changes in fluorescence were monitored every 1 second over a 60 second time period, with the Tetra adding 25 μL of appropriate compound at the 10 second time point (excitation at 470-495 nm, detection at 515-575 nm). […]

ACKR3 = ACKR3 (Homo sapiens, UniProt P25106); assay: ACKR3 β-arrestin recruitment assay (PathHunter, β-galactosidase complementation); details: for Emax: read-out: ACKR3 β-arrestin % CXCL12 Emax ± SEM; for EC50: stable human ACKR3-β-arrestin-2-CHO cells, mean ± SEM, at least two independent experiments in duplicate
Summary of the method: as §2

T2 sequence (O95180 whole entry): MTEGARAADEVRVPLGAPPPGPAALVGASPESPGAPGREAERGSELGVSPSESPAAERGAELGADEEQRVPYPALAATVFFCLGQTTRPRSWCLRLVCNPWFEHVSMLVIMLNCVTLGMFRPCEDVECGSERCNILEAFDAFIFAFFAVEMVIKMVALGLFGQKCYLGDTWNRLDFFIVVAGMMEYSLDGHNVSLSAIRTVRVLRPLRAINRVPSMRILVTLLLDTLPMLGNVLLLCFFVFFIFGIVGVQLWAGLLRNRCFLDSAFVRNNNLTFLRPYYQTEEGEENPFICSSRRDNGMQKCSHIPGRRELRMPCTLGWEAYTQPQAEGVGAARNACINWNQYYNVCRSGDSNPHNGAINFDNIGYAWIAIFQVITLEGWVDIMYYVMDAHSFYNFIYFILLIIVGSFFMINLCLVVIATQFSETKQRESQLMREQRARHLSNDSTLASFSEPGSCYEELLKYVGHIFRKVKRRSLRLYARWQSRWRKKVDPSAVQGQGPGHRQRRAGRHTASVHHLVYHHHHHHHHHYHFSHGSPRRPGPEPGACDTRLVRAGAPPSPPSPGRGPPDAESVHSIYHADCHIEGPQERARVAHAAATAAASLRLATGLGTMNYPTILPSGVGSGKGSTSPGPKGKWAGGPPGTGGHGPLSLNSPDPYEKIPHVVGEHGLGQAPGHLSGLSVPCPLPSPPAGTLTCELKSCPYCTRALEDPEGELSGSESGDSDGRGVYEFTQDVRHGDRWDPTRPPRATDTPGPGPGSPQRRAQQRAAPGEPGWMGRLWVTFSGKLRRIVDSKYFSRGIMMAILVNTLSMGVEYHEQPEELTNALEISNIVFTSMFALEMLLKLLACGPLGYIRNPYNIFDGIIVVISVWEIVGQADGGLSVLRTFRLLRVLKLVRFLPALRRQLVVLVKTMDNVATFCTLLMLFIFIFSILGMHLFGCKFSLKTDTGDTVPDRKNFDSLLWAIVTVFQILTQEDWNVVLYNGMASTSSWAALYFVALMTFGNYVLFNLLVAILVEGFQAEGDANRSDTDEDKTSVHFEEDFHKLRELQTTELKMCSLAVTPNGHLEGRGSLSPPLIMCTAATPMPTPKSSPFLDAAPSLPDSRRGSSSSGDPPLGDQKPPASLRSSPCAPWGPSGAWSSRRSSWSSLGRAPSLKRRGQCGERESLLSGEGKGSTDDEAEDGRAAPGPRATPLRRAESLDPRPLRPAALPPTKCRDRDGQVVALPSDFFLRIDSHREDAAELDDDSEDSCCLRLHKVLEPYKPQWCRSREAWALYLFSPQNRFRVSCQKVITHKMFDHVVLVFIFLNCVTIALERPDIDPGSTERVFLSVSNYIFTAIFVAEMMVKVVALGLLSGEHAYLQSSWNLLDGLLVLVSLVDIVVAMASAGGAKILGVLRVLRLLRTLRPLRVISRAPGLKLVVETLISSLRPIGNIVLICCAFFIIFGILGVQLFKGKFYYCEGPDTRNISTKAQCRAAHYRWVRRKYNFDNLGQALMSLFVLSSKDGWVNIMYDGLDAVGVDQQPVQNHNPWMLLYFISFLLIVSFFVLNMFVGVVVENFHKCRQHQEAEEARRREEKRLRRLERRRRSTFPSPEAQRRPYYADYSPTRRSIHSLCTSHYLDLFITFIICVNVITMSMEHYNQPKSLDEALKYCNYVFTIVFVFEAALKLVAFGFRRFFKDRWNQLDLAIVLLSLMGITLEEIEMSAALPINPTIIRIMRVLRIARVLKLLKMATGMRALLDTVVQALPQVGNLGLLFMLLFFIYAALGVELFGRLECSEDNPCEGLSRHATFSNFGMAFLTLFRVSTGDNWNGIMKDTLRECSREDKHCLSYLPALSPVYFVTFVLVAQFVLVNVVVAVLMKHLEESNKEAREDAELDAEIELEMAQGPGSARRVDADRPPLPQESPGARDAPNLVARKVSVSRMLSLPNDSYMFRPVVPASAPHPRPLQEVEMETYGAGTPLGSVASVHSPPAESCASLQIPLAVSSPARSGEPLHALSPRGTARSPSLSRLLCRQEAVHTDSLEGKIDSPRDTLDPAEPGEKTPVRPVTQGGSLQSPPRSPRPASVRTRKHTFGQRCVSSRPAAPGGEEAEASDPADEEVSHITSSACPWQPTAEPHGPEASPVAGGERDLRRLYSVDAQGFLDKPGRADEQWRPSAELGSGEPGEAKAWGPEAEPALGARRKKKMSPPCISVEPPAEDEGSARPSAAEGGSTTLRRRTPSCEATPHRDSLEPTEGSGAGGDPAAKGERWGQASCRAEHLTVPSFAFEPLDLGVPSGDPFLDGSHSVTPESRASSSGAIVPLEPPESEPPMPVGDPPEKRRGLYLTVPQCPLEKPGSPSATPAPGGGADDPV
T1 sequence (P61073 whole entry): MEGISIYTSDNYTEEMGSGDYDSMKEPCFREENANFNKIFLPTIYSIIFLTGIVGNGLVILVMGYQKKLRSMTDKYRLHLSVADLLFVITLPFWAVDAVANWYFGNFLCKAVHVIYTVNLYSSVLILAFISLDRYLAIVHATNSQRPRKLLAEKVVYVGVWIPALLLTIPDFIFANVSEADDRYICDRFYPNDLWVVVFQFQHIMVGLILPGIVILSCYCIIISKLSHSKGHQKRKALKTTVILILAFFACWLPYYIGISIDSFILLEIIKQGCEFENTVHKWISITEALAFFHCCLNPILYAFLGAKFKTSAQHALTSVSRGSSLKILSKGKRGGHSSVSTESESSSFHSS
Chain of ACKR3 (P25106 whole entry): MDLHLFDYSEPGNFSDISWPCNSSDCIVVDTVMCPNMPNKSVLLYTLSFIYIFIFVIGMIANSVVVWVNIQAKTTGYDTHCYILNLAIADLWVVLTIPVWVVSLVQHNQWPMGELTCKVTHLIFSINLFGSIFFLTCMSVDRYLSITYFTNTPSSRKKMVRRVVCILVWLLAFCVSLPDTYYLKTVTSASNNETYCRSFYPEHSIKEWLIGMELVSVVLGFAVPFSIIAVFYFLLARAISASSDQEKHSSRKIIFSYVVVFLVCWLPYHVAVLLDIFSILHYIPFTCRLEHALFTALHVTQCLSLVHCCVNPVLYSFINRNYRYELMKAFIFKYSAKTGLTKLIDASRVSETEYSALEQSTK
Chain of MOR (P35372 whole entry): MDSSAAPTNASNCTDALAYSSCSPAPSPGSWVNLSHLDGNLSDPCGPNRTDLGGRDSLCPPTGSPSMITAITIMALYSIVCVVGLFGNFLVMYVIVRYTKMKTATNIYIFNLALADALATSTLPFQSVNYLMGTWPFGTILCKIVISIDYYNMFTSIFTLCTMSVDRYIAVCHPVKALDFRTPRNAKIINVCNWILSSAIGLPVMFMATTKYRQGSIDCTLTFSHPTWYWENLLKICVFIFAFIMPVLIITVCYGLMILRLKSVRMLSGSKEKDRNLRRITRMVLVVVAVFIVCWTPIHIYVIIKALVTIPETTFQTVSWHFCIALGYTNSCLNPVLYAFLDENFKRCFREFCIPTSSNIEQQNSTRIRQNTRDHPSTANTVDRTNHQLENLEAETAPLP
Chain of DOR (P41143 whole entry): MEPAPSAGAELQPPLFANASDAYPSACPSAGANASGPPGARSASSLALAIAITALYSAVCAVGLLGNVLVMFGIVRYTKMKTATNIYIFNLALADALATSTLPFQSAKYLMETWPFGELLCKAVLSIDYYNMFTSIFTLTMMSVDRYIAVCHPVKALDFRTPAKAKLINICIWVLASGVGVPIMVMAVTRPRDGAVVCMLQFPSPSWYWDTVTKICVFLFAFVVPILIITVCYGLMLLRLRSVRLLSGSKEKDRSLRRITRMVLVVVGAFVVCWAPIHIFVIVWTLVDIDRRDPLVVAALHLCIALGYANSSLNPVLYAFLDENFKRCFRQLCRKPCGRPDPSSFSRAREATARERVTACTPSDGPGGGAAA
Chain of KOR (P41145 whole entry): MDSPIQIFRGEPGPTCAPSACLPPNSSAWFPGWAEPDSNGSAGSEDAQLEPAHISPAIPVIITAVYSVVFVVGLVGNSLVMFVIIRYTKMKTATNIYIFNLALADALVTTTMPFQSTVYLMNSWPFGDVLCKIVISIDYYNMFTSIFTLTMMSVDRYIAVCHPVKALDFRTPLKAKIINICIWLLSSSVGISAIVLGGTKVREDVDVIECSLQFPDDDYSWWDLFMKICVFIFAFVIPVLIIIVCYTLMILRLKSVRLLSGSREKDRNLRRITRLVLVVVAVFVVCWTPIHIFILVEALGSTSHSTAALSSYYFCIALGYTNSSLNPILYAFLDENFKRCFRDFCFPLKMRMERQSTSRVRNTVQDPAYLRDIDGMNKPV

| Emax (MOR) | MOR Calcium % DAMGO Inhibition (MOR) | CXCR4 β-arrestin % CXCL-12Emax (n = 2) (human CXCR4) | Emax (KOR) | KOR Calcium % U69, 593 Inhibition (KOR) | Emax (DOR) | DOR Calcium % DPDPE Inhibition (DOR) | CaV 3.2 % CaCl2 Inhibition (CaV 3.2) | Emax (ACKR3) | EC50 (ACKR3) | Compound |
| --- | --- | --- | --- | --- | --- | --- | --- | --- | --- | --- |
| 0% | 15% | 6% | 2% | 23% | 0% | 18% | 21% | 81 ± 5% | 4.62 ± 0.41 µM | C=C1c2[nH]c3ccccc3c2CN2CC[C@@H]1/C(=C\C)C2 [WW-16, (4E,5R)-4-ethylidene-6-methylidene-1,3,4,5,6,7-hexahydro-2,5-ethanoazocino[4,3-b]indole] |
| 1% | 4% | 7% | 1% | 5% | 0% | 11% | −11% | 146 ± 6% | 4.81 ± 0.45 µM | CCOC(=O)C1CCN(Cc2c[nH]c3ccccc23)CC1 [WW-17, ethyl 1-(1H-indol-3-ylmethyl)piperidine-4-carboxylate] |
| 0% | 2% | 8% | 0% | 8% | 0% | 6% | −2% | – | > 10 µM | O=C(c1cc2ccccc2[nH]1)C1CCN(Cc2ccccc2)CC1 [WW-18, (1-Benzylpiperidin-4-yl)(1H-indol-2-yl)methanone] |
